# Measured values as given in patent EP0719267B1, “SECOND MESSENGER CELL SIGNALING INHIBITORS” (CELL THERAPEUTICS, INC., priority 1993, dated 1994).
# Entries after “also recorded” stand apart in the source; their conditions may differ. Like-named read-outs stand apart in the source and are kept apart here.
# Columns and labels:
# [1] = tested on: human pulmonary smooth muscle cells; test: Growth factor-induced proliferation of pulmonary smooth muscle cells; type: cell-based; conditions: 5 µM
# Procedure: 58 on either aFGF or bFGF-induced proliferation in human pulmonary smooth muscle cells. Cells were grown in reduced serum (0.5% fetal calf serum) for 24 hours prior to stimulating with various concentrations of […]. Cells, stimulated with either aFGF or bFGF, were analyzed in the presence and absence of compound no. 58 (5 µM). Assay results are reported in figures 25A and 25B (aFGF and bFGF, respectively). As shown in the results, compound no.
# Figures 65A-65F illustrate inhibition of proliferation in either human aortic or pulmonary smooth muscle cells (SMC) by inventive compound no. 58. Procedurally, cells were cultured in 0.5% serum containing medium 24 hours prior to stimulation with various concentrations of either PDGF (figs. 65A and 65B), acidic FGF (figs. 65C and 65D) or basic FGF (figs. 65E and 65F). Cells were stimulated for 24 hours prior to labeling with ^3H-TdR for 4 hours and harvested and counted by scintillation. Compound no. 58 was added 1 hour prior to stimulation at a concentration of 5 µM. Even at points of maximum stimulation of the growth factors, compound no. […] In addition cell number was assessed and those treated with compound no.
# [2] = tested on: murine mixed tumor lymophocyte culture (MTLC); test: Mixed tumor lymphocyte culture (MTLC), splenocytes with 2PK3; type: cell-based
# Procedure: Figures 50A and 50B illustrate that compound no. 45 inhibits a murine mixed tumor lymophocyte culture (MTLC) and a human mixed leukocyte reaction (MLR). In the MTLC, splenocytes were stimulated (co-culture) with an alloantigen, B cell tumor target cell line (2PK3) in the presence or absence of compound no. 45. Cells were stimulated for 3 days, ^3H-TdR was added and the cells were harvested 4 hours later. Incorporation of ^3H-TdR was determined by liquid scintillation. Background counts were 1000-1200 CPM. For the human MLR, purified peripheral lymphocytes from two HLA disparate individuals were co-cultured for 6 days with or without compound no. 45. On the 7th day the cultures were pulsed with ^3HTdR for 24 hours and counted by scintillation.
# In an assay related to the MTLC assay, cytokines levels were measured by ELISA from the supernatants of an MTLC culture. […] 45. Figures 60B and 60C illustrate that compound no.
# murine splenocytes = test: Anti-CD3 stimulated splenocyte proliferation; type: cell-based; conditions: Mus musculus
# Procedure: In the assay, murine splenocytes were activated with a monoclonal antibody directed against CD3 (1 µg/ml), resulting in an IL-2 mediated proliferative response.
# 45 (1 µM). […] The supernatants were harvested and assayed for cytokine levels using commercial ELISAs for proliferation.
# C57BL/6 splenocytes = test: Antigen specific anergy induction (splenocytes with 2PK3 B cell tumor, restimulation); type: cell-based, murine
# Procedure: A B cell tumor, 2PK3 (H-2d) was used as a stimulating cell for C57BL/6 splenocytes (H-2b), a responding cell. Mixed cultures of B-cell tumor and splenocytes were incubated for 5 days with and without 1 µM of compound no. 45. After 5 days, the cells were washed and resuspended with either media, the original antigen (2PK3) or anti-CD3. Tritiated thymidine was added to the resulting suspensions and thymidine incorporation measured 24 hours later. As illustrated, culture treated with inventive compound no. […] However, cultures incubated with inventive compound no. […] Thus, C57BL/6 splenocytes were inhibited from responding to an original antigen by the inventive compound used in the pre-incubation step.
# As shown in figures 56A and 56B, inventive compound no. 45 also induces antigen specific T-cell anergy. Procedurally, murine splenocytes were stimulated with an alloantigen target cell line 2PK3 in the presence or absence of compound no. 45 (1 µM; approximate IC50). Following 5 days in culture, the cells were washed, re-cultured and restimulated with the original priming antigen and anti-CD3 monoclonal antibody. […] 45 during the five day primary culture. […] Although cells pretreated with inventive compound no. 45 could respond normally to polyclonal stimulation, those that were challenged with the alloantigen could not. Therefore, compound no. 45 induced a specific state of unresponsiveness or anergy to the alloantigen.
# [3] = tested on: human foreskin fibroblasts, HS68; test: Prostaglandin E2 release from IL-1α-stimulated fibroblasts; type: cell-based; conditions: 100 pg/ml IL-1α, 24 hours
# Procedure: Figure 61 illustrates that inventive compound no. […] Cells were stimulated with 100 pg/ml IL-1α. Inventive compound no. 45 was added 1 hour prior to stimulation. Supernatants were harvested 24 hours later and levels of PGE2 were analyzed by commercial immunoassay. The results are reported in figure 61 and confirm no effect on PGE2 release.
# [4] = tested on: normal human bone marrow stromal cells; test: Cytotoxicity in normal bone marrow stromal cells (vital dye uptake); type: cell-based; conditions: much higher concentrations than cytotoxic to tumor cells
# Procedure: Human bone marrow stromal cells (1 x 10^4 cells/well) were plated in 96 well plates in McCoy's medium with serum and incubated overnight. Different dilutions of inventive compound no. 50 were added and viable cell counts made by vital dye uptake.
# B16 melanoma cells = test: B16 melanoma in vivo study: bone marrow toxicity; set-up: species or system mice; conditions: 10 mg/kg QD or 20 mg/kg QOC
# Procedure: Figures 41A, 41B and 41C illustrates the results from an in vivo study in mice where B16 melanoma cells were injected intravenously through a tail vein on day 0 and compound no. 50 was administered inter parenterally at 10 mg/kg QD or 20 mg/kg QOC, starting days 1-14. The mice were sacrificed on day 15 and the lungs were dissected and fixed in formalin. In addition bone marrow toxicity was evaluated by measuring neutrophil and platelet counts in the mice on day 15.
# Lewis Lung Carcinoma = Lewis Lung Carcinoma (3LL) in vivo experiment; set-up: species or system BDFI mice
# Procedure: Figure 43 reports results in an in vivo experiment showing that inventive compound no. […] BDFI mice were injected subcutaneously with 1 x 10^6 3LL cells on day 0 and then treated with inventive compound no. (20 mg/kg i.p.), cyclophosphamide (20 mg/kg) or vehicle on alternate days beginning on day 7. The animals were sacrificed on day 20 and the lung tumors dissected and weighed. Figure 43 illustrates that compound no. […] Figure 44A and 44B illustrates platelet and neutrophil counts, respectively, of the sacrificed mice in the immediately preceding assay. […] 50.
# [5] = 20 mg/kg i.p. alternate days from day 7, day 20
structure (smiles),measurement,setting,value
"COc1cc(CNCC(O)CCCCCCCCCn2c(=O)c3c(ncn3C)n(C)c2=O)cc(OC)c1OC (stereo not shown) [compound no. 58, 1-[11-(3,4,5-Trimethoxybenzylamino)-10-hydroxyundecyl]-3,7-dimethylxanthine]",inhibition of aFGF and bFGF-induced proliferation,[1],a potent inhibitor of both aFGF and bFGF-induced proliferation
same,toxic effect,[1],No toxic effect
same,"inhibition of proliferation at maximum stimulation by PDGF, acidic FGF or basic FGF",[1]; added 1 hour prior,completely inhibited cellular proliferation in both aortic and pulmonary SMC
CCCCCCCCNCC(O)CCCCCCCCCn1c(=O)c2c(ncn2C)n(C)c1=O (stereo not shown) [compound no. 45],IFN-γ release,[2]; ELISA of supernatants,inhibited IFN-γ release
same,IL-2 or TNFα release,[2]; ELISA of supernatants,did not inhibit either IL-2 or TNFα release from the MTLC
same,IC50,"[2]; Mus musculus, 72 h, 3 days",~500 nM
same,overall proliferation,[2]; fig. 60A,inhibition of overall proliferation
same,IC50,"murine splenocytes; anti-CD3 (1 µg/ml), read-out: IC50",~850 nM
same,IC50,murine splenocytes; read-out: concentration approximately equal to IC50 value,~1000 nM
same,response to anti-CD3 after 5 days culture with compound,C57BL/6 splenocytes; 1 µM,responded equivilantly to anti-CD3; also recorded: polyclonal T-cell response to anti-CD3 was not affected
same,response to original/priming antigen 2PK3 after 5 days culture with compound,C57BL/6 splenocytes; 1 µM,"decreased response to primary antigen, 2PK3; also recorded: secondary response to the priming antigen was inhibited"
same,IC50,"C57BL/6 splenocytes; Mus musculus, Splenocyte, alloantigen target cell line 2PK3, read-out: approximate IC50",~1000 nM
same,prostaglandin E2 release,[3],did not have an effect on prostaglandin E2 release
"CCCCCCCCCCCCNCC(O)CCCCCCCCCn1c(=O)c2c(ncn2C)n(C)c1=O (stereo not shown) [compound no. 50, 1-(11-Dodecylamino-10-hydroxyundecyl)-3,7-dmethylxanthine]",cytotoxic activity,[4],lacks cytotoxic activity in normal human bone marrow stromal cells
same,neutrophil and platelet counts,B16 melanoma cells; day 15,increased counts over non-treated control animals
same,bone marrow toxicity,"B16 melanoma cells; days 1-14, day 15",not toxic to the bone marrow
same,lung tumor weight compared with cyclophosphamide (20 mg/kg),Lewis Lung Carcinoma; [5],superior results over an existing cancer chemotherapeutic agent
same,tumor growth,Lewis Lung Carcinoma; [5],can arrest growth of Lewis Lung Carcinoma in mice
same,platelet and neutrophil counts,"Lewis Lung Carcinoma; 20 mg/kg i.p., sacrificed mice",not altered from vehicle
